The record followed here is ChEMBL document CHEMBL5352421, “Identification of novel piperazine-tethered phthalazines as selective CDK1 inhibitors endowed with in vitro anticancer activity toward the pancreatic cancer” (Eur J Med Chem, 2022).

The term IC50 denotes the concentration that gives 50% inhibition.

In one assay the test system is MCF7. Nature of the assay: Antiproliferative activity against human MCF7 cells assessed as growth inhibition incubated at 10 uM for 24 hrs by MTT assay relative to control. It counts as functional. As to conditions: read-out: GI.
A further assay deals with A-375. As to the kind of experiment: Antiproliferative activity against human A-375 cells assessed as growth inhibition incubated at 10 uM for 24 hrs by MTT assay relative to control. Type of assay: functional. The settings on record: read-out: GI.
A further assay deals with MOLT-4. As to the kind of experiment: Antiproliferative activity against human MOLT-4 cells assessed as growth inhibition incubated at 10 uM for 24 hrs by MTT assay relative to control. Type of assay: functional. The settings on record: read-out: GI. (In general: Tetrazolium dyes change colour on reduction, which living cells bring about.)
A short description of assay [1]: Antiproliferative activity against human PL45 cells assessed as growth inhibition incubated at 10 uM for 24 hrs by MTT assay relative to control. It counts as functional. As to conditions: read-out: GI.
A further assay concerns T84. Nature of the assay: Antiproliferative activity against human T84 cells assessed as growth inhibition incubated at 10 uM for 24 hrs by MTT assay relative to control. Type of assay: functional. The settings on record: read-out: GI.
Assay [2] in a line: Antiproliferative activity against human MDA-PATC53 cells assessed as growth inhibition incubated at 10 uM for 24 hrs by MTT assay relative to control. The settings on record: read-out: GI. Type of assay: functional.
For a further assay, the system named is KG-1. As to the kind of experiment: Antiproliferative activity against human KG-1 cells assessed as growth inhibition incubated at 10 uM for 24 hrs by MTT assay relative to control. Type of assay: functional. The settings on record: read-out: GI.
For another assay, the system named is G-361. As to the kind of experiment: Antiproliferative activity against human G-361 cells assessed as growth inhibition incubated at 10 uM for 24 hrs by MTT assay relative to control. It counts as functional. As to conditions: read-out: GI.
Assay [3] can be described thus: Selectivity index, ratio of IC50 for CDK2 (unknown origin) to CDK1 (unknown origin).
For the next assay, the system named is BT-549. As to the kind of experiment: Antiproliferative activity against human BT-549 cells assessed as growth inhibition incubated at 10 uM for 24 hrs by MTT assay relative to control. It counts as functional. The settings on record: read-out: GI.
The next assay relates to SK-MEL-1. As to the kind of experiment: Antiproliferative activity against human SK-MEL-1 cells assessed as growth inhibition incubated at 10 uM for 24 hrs by MTT assay relative to control. The settings on record: read-out: GI. It counts as functional.
The target of assay [4] is Cyclin-dependent kinase 5 (Homo sapiens, UniProt Q00535). As to the kind of experiment: Inhibition of CDK5 (unknown origin) by FRET assay.
Chain of Cyclin-dependent kinase 5 (Q00535 whole entry): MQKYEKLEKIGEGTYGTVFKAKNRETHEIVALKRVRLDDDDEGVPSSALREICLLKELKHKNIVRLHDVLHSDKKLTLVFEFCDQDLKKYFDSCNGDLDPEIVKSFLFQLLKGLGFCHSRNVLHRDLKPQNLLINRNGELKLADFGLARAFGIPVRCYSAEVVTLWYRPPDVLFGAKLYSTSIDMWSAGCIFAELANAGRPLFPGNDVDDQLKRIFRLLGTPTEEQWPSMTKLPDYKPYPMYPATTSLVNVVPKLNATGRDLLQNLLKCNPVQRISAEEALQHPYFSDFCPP
Assay [5] is described as follows: Selectivity index, ratio of IC50 for CDK5 (unknown origin) to CDK1 (unknown origin).
In assay [6] the target is Insulin-like growth factor 1 receptor (Homo sapiens, UniProt P08069). As to the kind of experiment: Inhibition of IGF1R (unknown origin) by FRET assay.
Chain of Insulin-like growth factor 1 receptor (P08069 31-736 limits assumed): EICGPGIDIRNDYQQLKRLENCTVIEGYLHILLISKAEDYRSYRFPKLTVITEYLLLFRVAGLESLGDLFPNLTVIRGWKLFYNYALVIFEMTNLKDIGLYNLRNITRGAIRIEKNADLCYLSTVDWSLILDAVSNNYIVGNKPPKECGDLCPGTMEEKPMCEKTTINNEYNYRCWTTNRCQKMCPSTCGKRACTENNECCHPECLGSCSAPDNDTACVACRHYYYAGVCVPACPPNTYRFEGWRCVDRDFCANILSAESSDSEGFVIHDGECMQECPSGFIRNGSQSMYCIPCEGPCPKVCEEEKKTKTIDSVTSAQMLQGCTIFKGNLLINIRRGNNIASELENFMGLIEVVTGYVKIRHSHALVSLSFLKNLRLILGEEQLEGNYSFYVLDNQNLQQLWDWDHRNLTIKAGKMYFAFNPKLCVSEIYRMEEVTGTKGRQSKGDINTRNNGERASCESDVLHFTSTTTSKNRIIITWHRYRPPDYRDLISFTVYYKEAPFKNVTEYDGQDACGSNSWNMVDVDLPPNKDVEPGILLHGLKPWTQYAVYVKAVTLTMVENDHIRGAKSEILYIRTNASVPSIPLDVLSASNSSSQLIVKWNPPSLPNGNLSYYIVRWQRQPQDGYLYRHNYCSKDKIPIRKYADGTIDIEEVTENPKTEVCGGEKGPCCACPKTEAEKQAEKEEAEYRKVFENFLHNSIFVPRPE
Chain of Insulin-like growth factor 1 receptor (P08069 741-1367 limits assumed): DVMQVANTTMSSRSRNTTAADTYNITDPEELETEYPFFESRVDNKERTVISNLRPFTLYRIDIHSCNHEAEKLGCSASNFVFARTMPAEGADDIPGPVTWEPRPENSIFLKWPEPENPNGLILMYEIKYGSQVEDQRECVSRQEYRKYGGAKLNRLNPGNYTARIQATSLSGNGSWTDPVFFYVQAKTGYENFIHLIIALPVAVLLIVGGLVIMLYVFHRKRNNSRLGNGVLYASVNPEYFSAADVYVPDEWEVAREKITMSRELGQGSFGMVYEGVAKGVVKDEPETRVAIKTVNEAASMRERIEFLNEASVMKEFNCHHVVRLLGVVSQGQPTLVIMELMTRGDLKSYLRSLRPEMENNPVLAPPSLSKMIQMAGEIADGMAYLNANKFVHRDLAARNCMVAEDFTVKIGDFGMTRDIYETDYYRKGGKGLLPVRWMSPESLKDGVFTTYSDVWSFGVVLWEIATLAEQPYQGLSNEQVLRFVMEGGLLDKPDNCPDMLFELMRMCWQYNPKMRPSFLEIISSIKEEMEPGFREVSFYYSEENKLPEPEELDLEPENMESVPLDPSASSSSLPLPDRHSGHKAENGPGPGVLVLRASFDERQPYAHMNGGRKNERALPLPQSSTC
The target in assay [7] is T1, Tyrosine-protein kinase receptor UFO (Homo sapiens, UniProt P30530).
T1 sequence (P30530 whole entry): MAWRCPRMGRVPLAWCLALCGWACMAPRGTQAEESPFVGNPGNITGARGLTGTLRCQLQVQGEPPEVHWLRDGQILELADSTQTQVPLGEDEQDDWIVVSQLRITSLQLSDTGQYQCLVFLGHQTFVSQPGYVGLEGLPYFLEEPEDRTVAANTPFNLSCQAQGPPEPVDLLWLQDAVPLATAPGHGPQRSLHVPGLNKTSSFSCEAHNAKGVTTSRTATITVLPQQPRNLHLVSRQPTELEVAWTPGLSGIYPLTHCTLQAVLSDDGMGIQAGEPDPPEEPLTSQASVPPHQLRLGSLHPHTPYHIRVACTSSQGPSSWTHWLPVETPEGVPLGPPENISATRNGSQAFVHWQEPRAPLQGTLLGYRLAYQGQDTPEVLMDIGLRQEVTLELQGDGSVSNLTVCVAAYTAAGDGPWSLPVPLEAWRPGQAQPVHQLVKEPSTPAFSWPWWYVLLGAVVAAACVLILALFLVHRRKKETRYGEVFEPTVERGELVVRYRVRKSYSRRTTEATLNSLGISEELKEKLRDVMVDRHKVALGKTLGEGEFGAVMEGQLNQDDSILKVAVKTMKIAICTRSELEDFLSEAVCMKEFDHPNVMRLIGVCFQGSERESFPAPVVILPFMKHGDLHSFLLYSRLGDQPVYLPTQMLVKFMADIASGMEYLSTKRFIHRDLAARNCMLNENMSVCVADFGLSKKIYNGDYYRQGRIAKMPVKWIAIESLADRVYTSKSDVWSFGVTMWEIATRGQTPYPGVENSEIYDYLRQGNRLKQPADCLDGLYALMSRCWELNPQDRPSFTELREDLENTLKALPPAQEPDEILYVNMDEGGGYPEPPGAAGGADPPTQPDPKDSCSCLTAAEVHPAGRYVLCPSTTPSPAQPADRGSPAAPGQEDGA
As to the kind of experiment: Inhibition of AXL (unknown origin) by FRET assay.

In another assay the test system is HT-29. Nature of the assay: Antiproliferative activity against human HT-29 cells assessed as growth inhibition incubated at 10 uM for 24 hrs by MTT assay relative to control. Type of assay: functional. The settings on record: read-out: GI.
Assay [8] addresses Tyrosine-protein kinase JAK1 (Homo sapiens, UniProt P23458). As to the kind of experiment: Inhibition of JAK1 (unknown origin) by FRET assay.
Assay [9] addresses Serine/threonine-protein kinase B-raf (Homo sapiens, UniProt P15056). Nature of the assay: Inhibition of BRAF (unknown origin) by FRET assay.
Assay [10] in a line: Antiproliferative activity against human PL45 cells assessed as growth inhibition incubated for 24 hrs by MTT assay. It counts as functional, cell-based. As to conditions: PL45, 24 h.
Assay [11] deals with Protein-tyrosine kinase 2-beta (Homo sapiens, UniProt Q14289). As to the kind of experiment: Inhibition of PTK2B (unknown origin) by FRET assay.
Chain of Protein-tyrosine kinase 2-beta (Q14289 whole entry): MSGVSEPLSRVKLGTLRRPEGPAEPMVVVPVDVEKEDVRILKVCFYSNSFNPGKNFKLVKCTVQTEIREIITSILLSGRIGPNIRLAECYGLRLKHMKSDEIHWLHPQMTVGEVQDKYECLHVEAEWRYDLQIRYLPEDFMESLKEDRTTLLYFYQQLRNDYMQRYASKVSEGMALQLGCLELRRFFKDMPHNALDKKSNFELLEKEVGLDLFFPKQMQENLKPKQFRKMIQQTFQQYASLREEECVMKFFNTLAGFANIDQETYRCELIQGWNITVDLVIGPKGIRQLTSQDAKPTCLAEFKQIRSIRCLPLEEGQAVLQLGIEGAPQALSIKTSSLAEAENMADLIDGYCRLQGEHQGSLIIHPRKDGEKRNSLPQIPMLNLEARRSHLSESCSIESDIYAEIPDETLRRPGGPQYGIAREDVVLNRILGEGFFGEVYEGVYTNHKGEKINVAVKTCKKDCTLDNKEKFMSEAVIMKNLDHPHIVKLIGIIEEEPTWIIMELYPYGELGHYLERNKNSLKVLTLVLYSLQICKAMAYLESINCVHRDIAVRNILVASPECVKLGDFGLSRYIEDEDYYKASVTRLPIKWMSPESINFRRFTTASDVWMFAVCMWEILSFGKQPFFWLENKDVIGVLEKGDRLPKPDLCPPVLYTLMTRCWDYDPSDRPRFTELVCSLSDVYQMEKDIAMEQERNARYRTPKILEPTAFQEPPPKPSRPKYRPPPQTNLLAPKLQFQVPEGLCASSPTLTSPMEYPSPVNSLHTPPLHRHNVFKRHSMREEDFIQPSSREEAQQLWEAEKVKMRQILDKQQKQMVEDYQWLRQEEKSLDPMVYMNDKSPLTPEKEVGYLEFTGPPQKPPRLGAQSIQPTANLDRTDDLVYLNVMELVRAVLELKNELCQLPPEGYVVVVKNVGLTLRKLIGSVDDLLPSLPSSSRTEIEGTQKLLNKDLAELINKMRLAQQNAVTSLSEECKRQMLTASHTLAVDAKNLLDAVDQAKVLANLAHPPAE
Assay [12] in a line: Antiproliferative activity against human MDA-PATC53 cells assessed as growth inhibition incubated for 24 hrs by MTT assay. Type of assay: functional, cell-based. The settings on record: MDA-PATC53, 24 h.
The target of assay [13] is Fibroblast growth factor receptor (Homo sapiens, UniProt P22607+P11362+P22455+P21802). As to the kind of experiment: Inhibition of FGFR (unknown origin) by FRET assay. It counts as protein assay.
The target of assay [14] is Cyclin-dependent kinase 1 (Homo sapiens, UniProt P06493). As to the kind of experiment: Inhibition of CDK1 (unknown origin) by FRET assay.
Chain of Cyclin-dependent kinase 1 (P06493 whole entry): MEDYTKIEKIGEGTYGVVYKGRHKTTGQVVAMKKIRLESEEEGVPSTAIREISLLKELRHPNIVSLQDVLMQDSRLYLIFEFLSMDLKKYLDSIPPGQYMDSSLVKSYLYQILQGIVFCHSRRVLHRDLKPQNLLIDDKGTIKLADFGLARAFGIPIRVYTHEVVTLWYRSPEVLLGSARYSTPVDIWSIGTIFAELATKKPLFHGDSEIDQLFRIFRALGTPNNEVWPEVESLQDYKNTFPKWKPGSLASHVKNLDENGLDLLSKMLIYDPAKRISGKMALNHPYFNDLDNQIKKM
Assay [15] has as its target Cyclin-dependent kinase 2 (Homo sapiens, UniProt P24941). As to the kind of experiment: Inhibition of CDK2 (unknown origin) by FRET assay.

Chain of Serine/threonine-protein kinase B-raf (P15056 whole entry): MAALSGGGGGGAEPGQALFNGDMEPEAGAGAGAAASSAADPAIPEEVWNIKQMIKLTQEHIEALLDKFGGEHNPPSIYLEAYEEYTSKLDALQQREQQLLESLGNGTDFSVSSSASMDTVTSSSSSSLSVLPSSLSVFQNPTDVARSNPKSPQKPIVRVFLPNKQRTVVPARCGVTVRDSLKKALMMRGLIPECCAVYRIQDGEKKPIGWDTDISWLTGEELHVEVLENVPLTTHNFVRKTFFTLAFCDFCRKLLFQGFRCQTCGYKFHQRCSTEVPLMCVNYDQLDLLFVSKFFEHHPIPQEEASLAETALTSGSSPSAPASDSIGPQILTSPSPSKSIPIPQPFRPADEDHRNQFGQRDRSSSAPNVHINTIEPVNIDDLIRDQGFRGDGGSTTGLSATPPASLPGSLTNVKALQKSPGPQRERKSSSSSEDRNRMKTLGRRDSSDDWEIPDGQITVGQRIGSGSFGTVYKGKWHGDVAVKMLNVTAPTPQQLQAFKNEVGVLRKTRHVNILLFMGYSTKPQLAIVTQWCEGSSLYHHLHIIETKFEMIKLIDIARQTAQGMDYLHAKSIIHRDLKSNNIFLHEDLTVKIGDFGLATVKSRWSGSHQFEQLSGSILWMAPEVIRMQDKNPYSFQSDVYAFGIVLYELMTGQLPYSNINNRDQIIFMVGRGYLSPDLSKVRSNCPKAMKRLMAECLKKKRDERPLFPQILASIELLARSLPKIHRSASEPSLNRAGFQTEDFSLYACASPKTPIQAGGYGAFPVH
Chain of Tyrosine-protein kinase JAK1 (P23458 whole entry): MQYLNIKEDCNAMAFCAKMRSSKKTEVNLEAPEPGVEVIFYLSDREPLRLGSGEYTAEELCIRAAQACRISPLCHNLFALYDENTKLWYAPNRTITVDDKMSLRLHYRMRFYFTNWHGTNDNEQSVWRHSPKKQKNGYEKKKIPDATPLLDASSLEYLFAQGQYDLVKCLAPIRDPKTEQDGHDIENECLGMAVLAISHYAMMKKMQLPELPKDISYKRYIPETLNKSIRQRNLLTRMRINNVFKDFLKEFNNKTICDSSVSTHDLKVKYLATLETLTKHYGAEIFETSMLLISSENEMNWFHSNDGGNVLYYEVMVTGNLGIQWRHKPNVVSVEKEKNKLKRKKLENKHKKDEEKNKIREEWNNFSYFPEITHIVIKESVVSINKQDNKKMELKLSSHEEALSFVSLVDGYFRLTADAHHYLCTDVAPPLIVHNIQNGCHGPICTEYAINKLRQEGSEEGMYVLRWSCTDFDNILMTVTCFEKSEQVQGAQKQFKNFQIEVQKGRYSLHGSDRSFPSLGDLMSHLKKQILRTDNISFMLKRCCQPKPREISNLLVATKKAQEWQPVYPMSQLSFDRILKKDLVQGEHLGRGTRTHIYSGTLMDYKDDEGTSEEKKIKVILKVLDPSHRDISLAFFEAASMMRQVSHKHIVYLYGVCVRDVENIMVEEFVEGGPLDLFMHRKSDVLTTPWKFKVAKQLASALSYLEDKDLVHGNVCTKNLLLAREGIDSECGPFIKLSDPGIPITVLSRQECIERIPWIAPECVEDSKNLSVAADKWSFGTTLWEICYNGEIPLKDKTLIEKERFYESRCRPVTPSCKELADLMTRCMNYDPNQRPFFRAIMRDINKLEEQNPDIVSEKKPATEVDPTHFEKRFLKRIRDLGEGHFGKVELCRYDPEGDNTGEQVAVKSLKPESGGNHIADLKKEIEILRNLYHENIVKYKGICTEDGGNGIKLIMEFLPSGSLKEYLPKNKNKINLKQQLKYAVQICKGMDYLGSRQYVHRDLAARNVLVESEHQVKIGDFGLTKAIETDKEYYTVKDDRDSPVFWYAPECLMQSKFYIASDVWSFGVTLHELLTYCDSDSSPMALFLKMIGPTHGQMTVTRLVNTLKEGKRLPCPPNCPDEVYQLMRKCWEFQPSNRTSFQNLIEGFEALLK

As to `COc1ccc(Cc2nnc(N3CCN(C(=S)Nc4ccc(Cl)cc4)CC3)c3ccccc23)cc1`, the inhibition of growth at 10 µM in the assay on MCF7 turned out to be 71.9%; in the assay with A-375, 85.6%; in the assay on MOLT-4, 78.4%; in assay [1], 86.4%; in the assay with T84, 81.4%; in assay [2] it was 85.8%. Also, the inhibition of growth at 10 µM in the assay with KG-1 is 63.9%; in the assay with G-361, 72.3%; in the assay with BT-549 it was 75.4%; in the assay on SK-MEL-1, 64.7%; with HT-29, 80.1%. Besides, the Ratio IC50 in [3] is 10.8; in [5], 14.5. Also, the IC50 amounted to 716 nM in [4]; 7440 nM in [6]; 2170 nM in [7]; 4150 nM in assay [8]; 2470 nM in assay [9]; 1890 nM in [10]. In addition, the IC50 turned out to be 2370 nM in [11]; 1620 nM in assay [12]; 4354 nM in assay [13]; 49.5 nM in [14]; 534 nM in assay [15].
Turning to `COc1ccc(C(=O)N2CCN(c3nnc(Cc4ccccc4)c4ccccc34)CC2)cc1`, the inhibition of growth at 10 µM with MCF7 turned out to be 4.09%; in the assay on A-375, 5.3%; with MOLT-4, 1.02%; in assay [1] it was 66.7%; in the assay with T84, 2%; in assay [2], 42%. The inhibition of growth at 10 µM with KG-1 turned out to be 0.91%; in the assay with G-361 it was 3.45%; with BT-549, 5.26%; in the assay on SK-MEL-1, 11.8%; in the assay on HT-29, 1.58%. For the same compound, the Ratio IC50 in assay [3] amounted to 3.62; in assay [5], 7.29. The IC50 is 606 nM in [4]; 4080 nM in assay [6]; 1520 nM in [7]; 5550 nM in assay [8]; 4670 nM in assay [9]; 4850 nM in assay [10]. Besides, the IC50 in assay [11] turned out to be 6380 nM; in assay [12], 14400 nM; in assay [13], 8605 nM; in assay [14], 83.1 nM; in assay [15], 301 nM.
In the case of `O=C(Nc1ccc(Cl)cc1)N1CCN(c2nnc(Cc3ccccc3)c3ccccc23)CC1`, the inhibition of growth at 10 µM with MCF7 turned out to be 64.8%; in the assay on A-375, 66.3%; with MOLT-4, 33%; in assay [1], 81.8%; in the assay with T84, 29.4%; in [2], 67.4%. Moreover, the inhibition of growth at 10 µM in the assay with KG-1 is 57.9%; in the assay on G-361 it was 47%; in the assay with BT-549, 23%; in the assay with SK-MEL-1 it was 50.1%; with HT-29, 81.2%. Besides, the Ratio IC50 in assay [3] was determined as 1.76; in [5], 14.2. Further, the IC50 in assay [4] turned out to be 826 nM; in [6] it was 3150 nM; in [7] it was 8750 nM; in assay [8] it was 4550 nM; in assay [9], 3650 nM; in assay [10], 2210 nM. For the same compound, the IC50 in assay [11] was determined as 1330 nM; in assay [12], 5300 nM; in [13], 6346 nM; in assay [14], 58.4 nM; in [15], 103 nM.
For the compound `O=C(Nc1ccccc1)N1CCN(c2nnc(Cc3ccccc3)c3ccccc23)CC1`, the inhibition of growth at 10 µM with MCF7 worked out at 18.4%; in the assay on A-375, 62%; in the assay on MOLT-4, 41%; in [1], 87.4%; in the assay on T84, 63.1%; in assay [2] it was 77.9%. Moreover, the inhibition of growth at 10 µM came to 29.7% in the assay with KG-1; 23.8% with G-361; 76.5% with BT-549; 49.7% with SK-MEL-1; 36.2% in the assay with HT-29. The results for the Ratio IC50 in assay [3] and in assay [5] were 5.31 and 2.95, respectively. The IC50 in [4] worked out at 159 nM; in assay [6], 1270 nM; in assay [7], 7530 nM; in [8], 3630 nM; in [9], 9310 nM; in assay [10], 1650 nM. The 50% inhibitory concentration (IC50) in assay [11] was 2490 nM; in [12] it was 2970 nM; in [13], 2579 nM; in assay [14], 53.8 nM; in [15] it was 286 nM.
For `COc1ccc(Cc2nnc(N3CCN(C(=O)Nc4ccccc4)CC3)c3ccccc23)cc1`, the inhibition of growth at 10 µM with MCF7 turned out to be 33.4%; in the assay with A-375 it was 36.1%; in the assay with MOLT-4 it was 27.8%; in assay [1] it was 73.6%; with T84, 53.6%; in assay [2] it was 46.3%. The inhibition of growth at 10 µM in the assay on KG-1 came out at 49.7%; with G-361, 29.8%; in the assay with BT-549 it was 56%; in the assay on SK-MEL-1, 27.1%; in the assay on HT-29 it was 51.3%. The Ratio IC50 is 6.19 in assay [3] and 7.22 in [5]. The IC50 was found to be 601 nM in assay [4]; 5420 nM in [6]; 2370 nM in assay [7]; 2050 nM in assay [8]; 4750 nM in assay [9]; 2980 nM in assay [10]. Further, the IC50 in assay [11] was 5820 nM; in assay [12], 11300 nM; in [13] it was 2628 nM; in [14], 83.2 nM; in assay [15], 515 nM.
Take `S=C(Nc1ccccc1)N1CCN(c2nnc(Cc3ccccc3)c3ccccc23)CC1`: the inhibition of growth at 10 µM in the assay with MCF7 stood at 64.6%; with A-375, 38.2%; in the assay on MOLT-4, 43%; in [1], 78.4%; in the assay with T84, 56%; in assay [2], 85.2%. Also, the inhibition of growth at 10 µM was 61.9% in the assay on KG-1; 58.9% in the assay on G-361; 42.1% in the assay with BT-549; 50.9% in the assay on SK-MEL-1; 20.7% in the assay on HT-29. For the same compound, the values for the Ratio IC50 in assay [3] and in assay [5] were 3.42 and 13.5, respectively. Also, the IC50 stood at 947 nM in assay [4]; 2370 nM in assay [6]; 1260 nM in assay [7]; 4970 nM in assay [8]; 8750 nM in assay [9]; 2540 nM in assay [10]. In addition, the IC50 in [11] is 5230 nM; in [12], 1610 nM; in assay [13], 2507 nM; in assay [14], 70 nM; in assay [15] it was 240 nM.
